Molecules are shown by their SMILES.

In one data set the test system is Venturia inaequalis. Description: In vivo preventive test on Venturia inaequalis (apples). Particulars: 100 ppm of active ingredient, evaluated 10 days after inoculation. The method, then:
(§1) EXAMPLE J: IN VIVO PREVENTIVE TEST ON VENTURIA INAEQUALIS (APPLES) Solvent: 24.5 parts by weight of acetone • 24.5 parts by weight of N,N-dimethylacetamide Emulsifier: 1 part by weight of alkylaryl polyglycol ether To produce a suitable preparation of active compound, 1 part by weight of active compound is mixed with the stated amounts of solvent and emulsifier, and the concentrate is diluted with water to the desired concentration. To test for preventive activity, young plants are sprayed with the preparation of active compound at the stated rate of application. After the spray coating has dried on, the plants are inoculated with an aqueous conidia suspension of the causal agent of apple scab (Venturia inaequalis) and then remain for 1 day in an incubation cabinet at approximately 20° C. and a relative atmospheric humidity of 100%. The plants are then placed in a greenhouse at approximately 21° C. and a relative atmospheric humidity of approximately 90%. The test is evaluated 10 days after the inoculation. 0% means an efficacy which corresponds to that of the untreated control, while an efficacy of 100% means that no disease is observed. Under these conditions, total protection is observed at a dose of 100 ppm of active ingredient with the following compounds from table J: […]

Data set [1] can be described thus: log P by HPLC on reversed-phase column (C 18), EEC Directive 79/831 Annex V.A8. In kind it is physicochemical. Particulars: C 18 reversed phase, 40° C., 0.1% aqueous formic acid and acetonitrile gradient. The method, then: In table 1, the log P values were determined in accordance with EEC Directive 79/831 Annex V.A8 by HPLC (High Performance Liquid Chromatography) on a reversed-phase column (C 18), using the method described below: Temperature: 40° C.; Mobile phases: 0.1% aqueous formic acid and acetonitrile; linear gradient from 10% acetonitrile to 90% acetonitrile. Calibration was carried out using unbranched alkan-2-ones (comprising 3 to 16 carbon atoms) with known log P values (determination of the log P values by the retention times using linear interpolation between two successive alkanones). lambda-max-values were determined using UV-spectra from 200 nm to 400 nm and the peak values of the chromatographic signals.

For a further data set, the system named is Uromyces appendiculatus. The data set can be described thus: In vivo preventive test on Uromyces appendiculatus (beans). As to conditions: 100 ppm of active ingredient, evaluated 10 days after inoculation. As to the method: as §1, with “I:” for “J:”, “UROMYCES APPENDICULATUS (BEANS)” for “VENTURIA INAEQUALIS (APPLES)”, “spore” for “conidia”, “bean rust (Uromyces appendiculatus)” for “apple scab (Venturia inaequalis)”, “conditions, excellent (at least 95%) to” for “conditions,”

For data set [2], the system named is Blumeria graminis fsp. hordei. Description: In vivo preventive test on Blumeria graminis (barley). As to conditions: 500 ppm of active ingredient, evaluated 7 days after inoculation. As to the method: EXAMPLE B: IN VIVO PREVENTIVE TEST ON BLUMERIA GRAMINIS (BARLEY) Solvent: 49 parts by weight of N,N-dimethylacetamide Emulsifier: 1 part by weight of alkylaryl polyglycol ether To produce a suitable preparation of active compound, 1 part by weight of active compound or active compound combination is mixed with the stated amounts of solvent and emulsifier, and the concentrate is diluted with water to the desired concentration. To test for preventive activity, young plants are sprayed with the preparation of active compound or active compound combination at the stated rate of application. After the spray coating has been dried, the plants are dusted with spores of Blumeria graminis fsp. hordei. The plants are placed in the greenhouse at a temperature of approximately 18° C. and a relative atmospheric humidity of approximately 80% to promote the development of mildew pustules. The test is evaluated 7 days after the inoculation. 0% means an efficacy which corresponds to that of the untreated control, while an efficacy of 100% means that no disease is observed. Under these conditions, total protection is observed at a dose of 500 ppm of active ingredient with the following compounds from table B: […]

Another data set relates to Septoria tritici. The data set can be described thus: In vivo preventive test on Septoria tritici (wheat). As to conditions: 500 ppm of active ingredient, evaluated 21 days after inoculation. As to the method: EXAMPLE G: IN VIVO PREVENTIVE TEST ON SEPTORIA TRITICI (WHEAT) Solvent: 49 parts by weight of N,N-dimethylacetamide Emulsifier: 1 part by weight of alkylaryl polyglycol ether To produce a suitable preparation of active compound, 1 part by weight of active compound or active compound combination is mixed with the stated amounts of solvent and emulsifier, and the concentrate is diluted with water to the desired concentration. To test for preventive activity, young plants are sprayed with the preparation of active compound or active compound combination at the stated rate of application. After the spray coating has dried on, the plants are sprayed with a spore suspension of Septoria tritici. The plants remain for 48 hours in an incubation cabinet at approximately 20° C. and a relative atmospheric humidity of approximately 100% and then 60 hours at approximately 15° C. in a translucent incubation cabinet at a relative atmospheric humidity of approximately 100%. The plants are placed in a greenhouse at a temperature of approximately 15° C. and a relative atmospheric humidity of approximately 80%. The test is evaluated 21 days after the inoculation. 0% means an efficacy which corresponds to that of the control, while an efficacy of 100% means that no disease is observed. Under these conditions, total protection is observed at a dose of 500 ppm of active ingredient with the following compounds from table G: […]

Consider `CC(C1Cc2ccccc2C1)N(C(=O)c1cn(C)nc1C(F)F)C1CC1` (stereo not shown) [Example 13], for which the Efficacy with Venturia inaequalis was 100%; with Uromyces appendiculatus it was 98%; in data set [2], 100%; in the data set on Septoria tritici, 100%. The compound also had a logP in data set [1] of 3.33.
The compound `CCC(C1CCc2ccccc2C1)N(C(=O)c1c(C(F)F)nn(C)c1F)C1CC1` (stereo not shown) [Example 17] came in with a logP in data set [1] of 4.41. Moreover, the Efficacy in the data set on Septoria tritici was determined as 100%.
As for `Cc1nn(C)c(F)c1C(=O)N(C1CC1)C(C)C1Cc2ccccc2C1` (stereo not shown) [Example 11], the Efficacy (in the data set with Venturia inaequalis; in the data set on Uromyces appendiculatus; in data set [2]; in the data set on Septoria tritici) was 100% throughout. This compound also yielded a logP in data set [1] of 3.25.
For `CC(C1Cc2ccccc2C1)N(C(=O)c1c(C(F)F)nn(C)c1F)C1CC1` (stereo not shown) [Example 14, N-cyclopropyl-3-(difluoromethyl)-N-[1-(indan-2-yl)ethyl]-5-fluoro-1-methyl-1H-pyrazole-4-carboxamide], the Efficacy (in the data set on Venturia inaequalis; in data set [2]; in the data set with Septoria tritici) was 100% each time. In addition, the chromatographic logP in data set [1] (reversed-phase HPLC column (C 18)) was 3.76.
For the compound `CCc1nn(C)c(F)c1C(=O)N(C1CC1)C(C)C1Cc2ccccc2C1` (stereo not shown) [Example 12], the Efficacy (with Venturia inaequalis; in the data set on Uromyces appendiculatus; in data set [2]; in the data set on Septoria tritici) was 100% throughout. The same compound registered a logP in data set [1] of 3.67.
In the case of `CC(C1CCc2ccccc2C1)N(C(=O)c1c(C(F)F)nn(C)c1F)C1CC1` (stereo not shown) [Example 16], the Efficacy (in the data set with Venturia inaequalis; in data set [2]; in the data set with Septoria tritici) was 100% throughout. Moreover, in data set [1], the logP came to 3.99.

The values are drawn from patent publication US10093611B2, “Benzocycloalkenes as antifungal agents” (Bayer Intellectual Property GmbH, priority 2010, dated 2018).
